ChEMBL document CHEMBL1201862, “PubChem BioAssay data set” (2004)
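Growth conditions: 96-well plates. Treatment: test compound, 48 hours, 5 concentrations. Analysis: linear interpolation between bracketing concentrations; unreached endpoints set to highest concentration. GI50 marks 50% less growth.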 The source made the active and inactive calls. Rule as the data show it: active = GI50 up to about 1.1 µM and inactive = higher.

Columns and labels:
Test in all cases: NCI anticancer screen, dose series, 48 h
M19-MEL = test system: M19-MEL
KM-20L2 = test system: KM-20L2
SNB-78 = test system: SNB-78
DMS-114 = test system: DMS-114
DMS-273 = test system: DMS-273
HOP-18 = test system: HOP-18
LXFL 529 = test system: LXFL 529
DLD-1 = test system: DLD-1
RXF 631 = test system: RXF 631

## CC(=O)c1ccccc1NC(=O)C(=O)C(C(=O)c1ccc2ccccc2c1)C1OC(=O)c2ccccc21 (stereo not given)
M19-MEL
  GI50: 8.85 µM (inactive)
KM-20L2
  GI50: 32.2 µM (inactive)
SNB-78
  GI50: 9.4 µM (inactive)
DMS-114
  GI50: 7.98 µM (inactive)
DMS-273
  GI50: 6.32 µM (inactive)
HOP-18
  GI50: 14.5 µM (inactive)
LXFL 529
  GI50: 9.79 µM (inactive)
DLD-1
  GI50: 12.2 µM (inactive)

## Nc1ccc(C(=O)NN2C(=O)C(Cl)C2c2cc(Br)ccc2O)cc1 (stereo not given)
M19-MEL
  GI50: > 100 µM (inactive)
KM-20L2
  GI50: > 100 µM (inactive)
SNB-78
  GI50: > 100 µM (inactive)
DMS-114
  GI50: 44.5 µM (inactive)
DMS-273
  GI50: 80.4 µM (inactive)
LXFL 529
  GI50: > 100 µM (inactive)
DLD-1
  GI50: > 100 µM (inactive)

## NC(=S)N1N=C2c3ccccc3CC[C@H]2[C@@H]1c1cccs1
M19-MEL
  GI50: 19.9 µM (inactive)
KM-20L2
  GI50: 23.9 µM (inactive)
SNB-78
  GI50: 32.4 µM (inactive)
DMS-114
  GI50: 22.5 µM (inactive)
DMS-273
  GI50: 10.8 µM (inactive)
HOP-18
  GI50: 21.1 µM (inactive)
LXFL 529
  GI50: 30.8 µM (inactive)
DLD-1
  GI50: 50.5 µM (inactive)

## O=C(CN1CCOCC1)Nc1nc(-c2ccc(Cl)cc2)cs1
M19-MEL
  GI50: 32.6 µM (inactive)
SNB-78
  GI50: 25.2 µM (inactive)
DMS-114
  GI50: 21.3 µM (inactive)
DMS-273
  GI50: 17.5 µM (inactive)
HOP-18
  GI50: 38.5 µM (inactive)
DLD-1
  GI50: 33.1 µM (inactive)

## CCN(CC)c1oc(N(CC)CC)c(C(=O)Nc2ccccn2)c(=O)c1C(C)=O
M19-MEL
  GI50: > 100 µM (inactive)
KM-20L2
  GI50: > 10 µM (inactive)
SNB-78
  GI50: > 100 µM (inactive)
DMS-114
  GI50: > 100 µM (inactive)
DMS-273
  GI50: > 100 µM (inactive)
LXFL 529
  GI50: > 100 µM (inactive)
DLD-1
  GI50: > 100 µM (inactive)

## CCCCCCCCCCCOc1ccc(C(=O)C(=O)c2ccc(OCCCCCCCCCCC)c(OCCCCCCCCCCC)c2)cc1OCCCCCCCCCCC
M19-MEL
  GI50: > 100 µM (inactive)
KM-20L2
  GI50: > 100 µM (inactive)
SNB-78
  GI50: > 100 µM (inactive)
DMS-114
  GI50: > 100 µM (inactive)
DMS-273
  GI50: > 100 µM (inactive)
LXFL 529
  GI50: > 100 µM (inactive)
DLD-1
  GI50: > 100 µM (inactive)

## CCCc1nc(N)nc(C(=O)Nc2cccc(C(F)(F)F)c2)c1CC
M19-MEL
  GI50: > 100 µM (inactive)
KM-20L2
  GI50: > 100 µM (inactive)
SNB-78
  GI50: > 100 µM (inactive)
DMS-114
  GI50: > 100 µM (inactive)
DMS-273
  GI50: > 100 µM (inactive)
HOP-18
  GI50: > 100 µM (inactive)
DLD-1
  GI50: > 100 µM (inactive)

## CC(=O)OC1CCC2OOC1O2 (stereo not given)
M19-MEL
  GI50: > 100 µM (inactive)
KM-20L2
  GI50: > 100 µM (inactive)
SNB-78
  GI50: > 100 µM (inactive)
DMS-114
  GI50: > 100 µM (inactive)
DMS-273
  GI50: > 100 µM (inactive)

## CCCC[C@H](CCc1ccccc1)N(C(=O)OC)N1CCC[C@H]1COC
M19-MEL
  GI50: 20.1 µM (inactive)
KM-20L2
  GI50: 15.1 µM (inactive)
SNB-78
  GI50: 21.3 µM (inactive)
DMS-114
  GI50: 15.8 µM (inactive)
DMS-273
  GI50: 18.7 µM (inactive)
RXF 631
  GI50: 16.9 µM (inactive)
HOP-18
  GI50: 27.2 µM (inactive)
LXFL 529
  GI50: 17.2 µM (inactive)
DLD-1
  GI50: 18.4 µM (inactive)

## N#C/C(=C\c1c(Cl)cccc1Cl)c1ccccc1
M19-MEL
  GI50: 8.57 µM (inactive)
KM-20L2
  GI50: 3.85 µM (inactive)
SNB-78
  GI50: 11.1 µM (inactive)
DMS-114
  GI50: 12.4 µM (inactive)
DMS-273
  GI50: 3.35 µM (inactive)
RXF 631
  GI50: 7.23 µM (inactive)
HOP-18
  GI50: > 50.1 µM (inactive)
LXFL 529
  GI50: 33.7 µM (inactive)
DLD-1
  GI50: 5.18 µM (inactive)

## CC(CCC(=O)O)c1ccc(Br)cc1 (stereo not given)
M19-MEL
  GI50: > 100 µM (inactive)
KM-20L2
  GI50: > 100 µM (inactive)
SNB-78
  GI50: > 100 µM (inactive)
DMS-114
  GI50: > 100 µM (inactive)
DMS-273
  GI50: > 100 µM (inactive)
HOP-18
  GI50: > 100 µM (inactive)
LXFL 529
  GI50: > 100 µM (inactive)
DLD-1
  GI50: > 100 µM (inactive)

## COC(=O)[C@@]1(C)/C(=N/NS(=O)(=O)c2ccc(C)cc2)CCC[C@@H]1C
M19-MEL
  GI50: > 100 µM (inactive)
KM-20L2
  GI50: > 100 µM (inactive)
SNB-78
  GI50: > 100 µM (inactive)
DMS-114
  GI50: 24.3 µM (inactive)
HOP-18
  GI50: > 100 µM (inactive)
LXFL 529
  GI50: > 100 µM (inactive)
DLD-1
  GI50: 44.7 µM (inactive)

## O=S(=O)(c1ccccc1)n1cc(C[P+](c2ccccc2)(c2ccccc2)c2ccccc2)c2ccccc21
M19-MEL
  GI50: 4.29 µM (inactive)
KM-20L2
  GI50: 4.89 µM (inactive)
SNB-78
  GI50: 5.71 µM (inactive)
DMS-114
  GI50: 3.37 µM (inactive)
DMS-273
  GI50: 3.21 µM (inactive)
LXFL 529
  GI50: 1.48 µM (inactive)
DLD-1
  GI50: 2.46 µM (inactive)

## CSCCOC(=O)C(=[N+]=[N-])c1ccc([N+](=O)[O-])cc1
KM-20L2
  GI50: > 100 µM (inactive)
DMS-114
  GI50: > 100 µM (inactive)
DMS-273
  GI50: > 100 µM (inactive)
LXFL 529
  GI50: > 100 µM (inactive)
DLD-1
  GI50: > 100 µM (inactive)

## Cc1c2cc[n+](C)cc2c(C)c2c1[nH]c1ccc(Oc3ccccc3)cc12
KM-20L2
  GI50: 0.927 µM (active)
DMS-273
  GI50: 0.387 µM (active)
LXFL 529
  GI50: 0.296 µM (active)
DLD-1
  GI50: 1.3 µM (inactive)

## CCc1nc(N)nc(C(=O)NCCNC(=O)c2nc(N)nc(CC)c2C)c1C
M19-MEL
  GI50: > 100 µM (inactive)
KM-20L2
  GI50: > 100 µM (inactive)
SNB-78
  GI50: > 100 µM (inactive)
DMS-114
  GI50: > 100 µM (inactive)
DMS-273
  GI50: > 100 µM (inactive)
RXF 631
  GI50: > 100 µM (inactive)
HOP-18
  GI50: > 100 µM (inactive)
LXFL 529
  GI50: > 100 µM (inactive)
DLD-1
  GI50: > 100 µM (inactive)

## NCCCCNc1ccc2c(=O)[nH][nH]c(=O)c2c1
M19-MEL
  GI50: > 100 µM (inactive)
KM-20L2
  GI50: > 100 µM (inactive)
SNB-78
  GI50: > 100 µM (inactive)
DMS-114
  GI50: > 100 µM (inactive)
DMS-273
  GI50: > 100 µM (inactive)
HOP-18
  GI50: > 100 µM (inactive)
LXFL 529
  GI50: > 100 µM (inactive)
DLD-1
  GI50: > 100 µM (inactive)

## O=C1C=CC(=O)C2=C1[C@@H](O)C1CC=CC3C(=O)O[C@@H]2C31 (stereo not given in full)
M19-MEL
  GI50: 23.2 µM (inactive)
KM-20L2
  GI50: 23.5 µM (inactive)
SNB-78
  GI50: > 42.7 µM (inactive)
DMS-114
  GI50: 22.7 µM (inactive)
DMS-273
  GI50: 21.9 µM (inactive)
HOP-18
  GI50: 29.4 µM (inactive)
LXFL 529
  GI50: 15.6 µM (inactive)
DLD-1
  GI50: 18.2 µM (inactive)

## CC(C)C(Nc1c2ccccc2[n+](C)c2ccccc12)C(=O)O (stereo not given)
M19-MEL
  GI50: > 100 µM (inactive)
KM-20L2
  GI50: > 100 µM (inactive)
SNB-78
  GI50: > 100 µM (inactive)
DMS-114
  GI50: > 100 µM (inactive)
DMS-273
  GI50: > 100 µM (inactive)
HOP-18
  GI50: > 100 µM (inactive)
LXFL 529
  GI50: > 100 µM (inactive)
DLD-1
  GI50: > 100 µM (inactive)

## Nc1cc2[nH]cnc2c(=O)[nH]1 [DEZAGUANINE]
M19-MEL
  GI50: 181 µM (inactive)
KM-20L2
  GI50: 33.7 µM (inactive)
SNB-78
  GI50: > 300 µM (inactive)
DMS-114
  GI50: 97.7 µM (inactive)
DMS-273
  GI50: 8.26 µM (inactive)
HOP-18
  GI50: > 121 µM (inactive)
DLD-1
  GI50: 13.9 µM (inactive)

## CCOC(C[C@H](O[Si](C)(C)C(C)(C)C)[C@H]1COC(=S)S1)OCC
M19-MEL
  GI50: 35.9 µM (inactive)
KM-20L2
  GI50: 41.4 µM (inactive)
DMS-114
  GI50: 36.7 µM (inactive)
DMS-273
  GI50: 30.1 µM (inactive)
LXFL 529
  GI50: 33.1 µM (inactive)

## O=C(O)C12C3C4C1C1C2C3C1(Br)C41OCCO1 (stereo not given)
M19-MEL
  GI50: > 100 µM (inactive)
KM-20L2
  GI50: > 100 µM (inactive)
SNB-78
  GI50: > 100 µM (inactive)
DMS-114
  GI50: > 100 µM (inactive)
DMS-273
  GI50: > 100 µM (inactive)
HOP-18
  GI50: > 100 µM (inactive)
LXFL 529
  GI50: > 100 µM (inactive)
DLD-1
  GI50: > 100 µM (inactive)

## COc1ccc2nc(NC(=O)C(=O)C(C#N)c3ccc([N+](=O)[O-])cc3)sc2c1 (stereo not given)
M19-MEL
  GI50: > 100 µM (inactive)
KM-20L2
  GI50: > 100 µM (inactive)
SNB-78
  GI50: > 100 µM (inactive)
DMS-114
  GI50: 43.3 µM (inactive)
DMS-273
  GI50: > 100 µM (inactive)
HOP-18
  GI50: 99.8 µM (inactive)
LXFL 529
  GI50: 23.6 µM (inactive)
DLD-1
  GI50: > 100 µM (inactive)
